# Source: ChEMBL document CHEMBL5532675, “Discovery of 4-Ethoxy-6-chloro-5-azaindazoles as Novel PDE4 Inhibitors for the Treatment of Alcohol Use Disorder and Alcoholic Liver Diseases” (J Med Chem, 2024)
# Tests used:
# [1] = target: 3',5'-cyclic-AMP phosphodiesterase 4B (Homo sapiens, UniProt Q07343); test: Inhibition of PDE4B1 (unknown origin) using FAM-cyclic-3',5'-AMP as substrate incubated for 1 hrs by fluorescence polarization based IMAP assay
# [2] = target: T1, 3',5'-cyclic-AMP phosphodiesterase 4D (Homo sapiens, UniProt Q08499); test: Inhibition of PDE4D7 (unknown origin) using FAM-cyclic-3',5'-AMP as substrate incubated for 1 hrs by fluorescence polarization based IMAP assay
# T1 sequence (Q08499 whole entry): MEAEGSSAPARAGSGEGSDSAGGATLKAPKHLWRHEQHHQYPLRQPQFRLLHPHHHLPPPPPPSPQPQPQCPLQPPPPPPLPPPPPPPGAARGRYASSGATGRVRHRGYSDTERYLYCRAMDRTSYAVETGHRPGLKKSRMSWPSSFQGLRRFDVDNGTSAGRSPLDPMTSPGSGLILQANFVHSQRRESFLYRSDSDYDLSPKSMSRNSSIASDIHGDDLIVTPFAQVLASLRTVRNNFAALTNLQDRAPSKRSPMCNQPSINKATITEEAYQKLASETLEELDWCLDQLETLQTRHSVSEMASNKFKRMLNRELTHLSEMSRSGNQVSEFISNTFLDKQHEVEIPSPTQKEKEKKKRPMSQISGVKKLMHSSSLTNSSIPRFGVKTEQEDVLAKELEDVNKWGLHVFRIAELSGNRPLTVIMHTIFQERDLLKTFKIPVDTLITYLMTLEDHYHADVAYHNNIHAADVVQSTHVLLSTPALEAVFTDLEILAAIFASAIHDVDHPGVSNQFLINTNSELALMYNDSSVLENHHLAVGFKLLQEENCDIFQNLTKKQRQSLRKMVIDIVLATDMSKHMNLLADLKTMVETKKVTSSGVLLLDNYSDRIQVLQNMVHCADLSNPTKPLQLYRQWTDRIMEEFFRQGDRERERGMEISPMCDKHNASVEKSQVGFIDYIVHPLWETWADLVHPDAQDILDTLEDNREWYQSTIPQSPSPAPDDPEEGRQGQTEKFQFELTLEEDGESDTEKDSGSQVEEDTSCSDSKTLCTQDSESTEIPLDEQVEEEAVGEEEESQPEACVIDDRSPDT
# [3] = target: T1, 3',5'-cyclic-AMP phosphodiesterase 4D; test: Inhibition of PDE4D7 (unknown origin) using FAM-cyclic-3',5'-AMP as substrate at 100 nM incubated for 1 hrs by fluorescence polarization based IMAP assay relative to control
# [4] = target: T1, 3',5'-cyclic-AMP phosphodiesterase 4D; test: Inhibition of PDE4D7 (unknown origin) using FAM-cyclic-3',5'-AMP as substrate at 10 nM incubated for 1 hrs by fluorescence polarization based IMAP assay relative to control
# [5] = tested on: SH-SY5Y; test: Cytotoxicity against human SH-SY5Y cells assessed as reduction in cell viability incubated for 48 hrs by MTT assay; format: toxicity, cell-based
# [6] = tested on: HT-22; test: Cytotoxicity against mouse HT-22 cells assessed as reduction in cell viability incubated for 48 hrs by MTT assay; format: toxicity, cell-based; conditions: ht-22, 48 h
# [7] = Chemical stability of compound in aqueous solution at pH <6 measured after 48 hrs; format: physicochemical; conditions: buffer
# [8] = Chemical stability of compound in aqueous solution at pH >10 measured after 48 hrs; format: physicochemical; conditions: buffer
# [9] = Selectivity ratio for inhibition of PDE9A (unknown origin) using FAM-cyclic-3',5'-AMP as substrate to inhibition of PDE4B1 (unknown origin) using FAM-cyclic-3',5'-AMP as substrate
# [10] = Selectivity ratio for inhibition of PDE8A1 (unknown origin) using FAM-cyclic-3',5'-AMP as substrate to inhibition of PDE4B1 (unknown origin) using FAM-cyclic-3',5'-AMP as substrate
# [11] = target: cGMP-inhibited 3',5'-cyclic phosphodiesterase 3B (Homo sapiens) (UniProt Q13370); test: Inhibition of PDE3B (unknown origin) using FAM-cyclic-3',5'-AMP as substrate at 10 uM incubated for 1 hrs by fluorescence polarization based IMAP assay relative to control
# cGMP-inhibited 3',5'-cyclic phosphodiesterase 3B (Homo sapiens), sequence (Q13370 whole entry, looked up): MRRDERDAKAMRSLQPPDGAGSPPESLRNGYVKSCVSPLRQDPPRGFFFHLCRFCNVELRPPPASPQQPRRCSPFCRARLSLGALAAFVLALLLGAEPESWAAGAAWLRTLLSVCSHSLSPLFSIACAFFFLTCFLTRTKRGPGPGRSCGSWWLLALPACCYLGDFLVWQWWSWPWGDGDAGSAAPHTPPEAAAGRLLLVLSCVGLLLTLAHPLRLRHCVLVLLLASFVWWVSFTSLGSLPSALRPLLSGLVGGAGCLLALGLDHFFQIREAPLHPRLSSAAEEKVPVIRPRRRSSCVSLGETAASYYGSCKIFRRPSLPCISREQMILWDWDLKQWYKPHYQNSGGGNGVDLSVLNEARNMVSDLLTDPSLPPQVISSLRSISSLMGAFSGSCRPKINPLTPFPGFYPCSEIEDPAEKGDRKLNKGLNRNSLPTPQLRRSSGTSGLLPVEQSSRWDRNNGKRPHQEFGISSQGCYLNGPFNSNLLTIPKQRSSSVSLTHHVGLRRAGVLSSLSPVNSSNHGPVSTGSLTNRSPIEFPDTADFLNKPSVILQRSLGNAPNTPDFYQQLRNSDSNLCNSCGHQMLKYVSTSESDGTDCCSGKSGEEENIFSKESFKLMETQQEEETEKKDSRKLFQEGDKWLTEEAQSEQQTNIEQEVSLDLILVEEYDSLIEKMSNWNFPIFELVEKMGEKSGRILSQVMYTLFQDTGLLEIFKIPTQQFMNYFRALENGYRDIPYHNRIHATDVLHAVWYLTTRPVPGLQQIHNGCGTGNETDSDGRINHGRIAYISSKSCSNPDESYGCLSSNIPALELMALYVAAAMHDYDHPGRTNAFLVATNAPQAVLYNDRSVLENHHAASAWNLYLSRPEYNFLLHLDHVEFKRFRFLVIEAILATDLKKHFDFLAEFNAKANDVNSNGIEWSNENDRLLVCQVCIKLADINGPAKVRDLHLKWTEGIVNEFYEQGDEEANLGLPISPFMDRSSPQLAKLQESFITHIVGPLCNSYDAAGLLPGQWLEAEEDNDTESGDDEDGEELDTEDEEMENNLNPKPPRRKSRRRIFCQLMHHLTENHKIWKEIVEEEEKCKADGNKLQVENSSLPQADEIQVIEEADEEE
# [12] = target: High affinity 3',5'-cyclic-AMP phosphodiesterase 7A (Homo sapiens) (UniProt Q13946); test: Inhibition of PDE7A (unknown origin) using FAM-cyclic-3',5'-AMP as substrate at 10 uM incubated for 1 hrs by fluorescence polarization based IMAP assay relative to control
# High affinity 3',5'-cyclic-AMP phosphodiesterase 7A (Homo sapiens), sequence (Q13946 whole entry): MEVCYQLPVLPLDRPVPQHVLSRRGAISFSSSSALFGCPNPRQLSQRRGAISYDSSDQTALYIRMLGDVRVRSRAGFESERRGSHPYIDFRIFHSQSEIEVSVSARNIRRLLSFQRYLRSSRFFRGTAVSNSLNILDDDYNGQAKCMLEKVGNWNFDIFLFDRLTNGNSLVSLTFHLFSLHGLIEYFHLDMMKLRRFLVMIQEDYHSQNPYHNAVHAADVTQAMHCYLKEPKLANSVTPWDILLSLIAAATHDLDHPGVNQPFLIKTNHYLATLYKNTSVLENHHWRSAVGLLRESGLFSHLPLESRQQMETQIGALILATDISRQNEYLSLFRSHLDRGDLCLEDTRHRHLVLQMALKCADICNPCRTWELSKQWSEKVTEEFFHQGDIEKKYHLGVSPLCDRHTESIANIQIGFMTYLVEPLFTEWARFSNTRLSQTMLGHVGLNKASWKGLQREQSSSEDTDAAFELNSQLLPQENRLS
# [13] = target: High affinity cAMP-specific and IBMX-insensitive 3',5'-cyclic phosphodiesterase 8A (Homo sapiens) (UniProt O60658); test: Inhibition of PDE8A1 (unknown origin) using FAM-cyclic-3',5'-AMP as substrate at 10 uM incubated for 1 hrs by fluorescence polarization based IMAP assay relative to control
# High affinity cAMP-specific and IBMX-insensitive 3',5'-cyclic phosphodiesterase 8A (Homo sapiens), sequence (O60658 whole entry): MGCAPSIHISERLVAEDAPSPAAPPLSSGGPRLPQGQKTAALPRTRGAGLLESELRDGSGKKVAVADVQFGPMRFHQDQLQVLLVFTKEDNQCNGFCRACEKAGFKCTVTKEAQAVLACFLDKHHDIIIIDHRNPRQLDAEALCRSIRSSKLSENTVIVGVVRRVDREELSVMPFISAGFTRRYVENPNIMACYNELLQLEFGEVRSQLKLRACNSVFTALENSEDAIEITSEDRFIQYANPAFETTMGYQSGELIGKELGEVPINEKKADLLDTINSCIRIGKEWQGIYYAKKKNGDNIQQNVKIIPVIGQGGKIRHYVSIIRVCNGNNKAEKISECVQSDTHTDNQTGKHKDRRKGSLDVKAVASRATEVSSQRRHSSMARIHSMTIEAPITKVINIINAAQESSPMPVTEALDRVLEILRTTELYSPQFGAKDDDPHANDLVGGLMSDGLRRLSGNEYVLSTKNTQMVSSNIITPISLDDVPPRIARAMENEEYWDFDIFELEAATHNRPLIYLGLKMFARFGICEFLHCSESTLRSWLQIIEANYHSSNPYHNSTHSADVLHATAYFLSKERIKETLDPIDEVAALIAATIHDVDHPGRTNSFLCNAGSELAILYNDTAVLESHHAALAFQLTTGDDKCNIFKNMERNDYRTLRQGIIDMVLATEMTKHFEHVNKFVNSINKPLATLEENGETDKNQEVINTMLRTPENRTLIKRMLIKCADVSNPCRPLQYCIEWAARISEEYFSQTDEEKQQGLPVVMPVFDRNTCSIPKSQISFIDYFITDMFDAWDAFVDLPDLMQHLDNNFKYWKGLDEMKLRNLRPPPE
# [14] = target: High affinity cGMP-specific 3',5'-cyclic phosphodiesterase 9A (Homo sapiens) (UniProt O76083); test: Inhibition of PDE9A (unknown origin) using FAM-cyclic-3',5'-AMP as substrate at 10 uM incubated for 1 hrs by fluorescence polarization based IMAP assay relative to control
# High affinity cGMP-specific 3',5'-cyclic phosphodiesterase 9A (Homo sapiens), sequence (O76083 whole entry): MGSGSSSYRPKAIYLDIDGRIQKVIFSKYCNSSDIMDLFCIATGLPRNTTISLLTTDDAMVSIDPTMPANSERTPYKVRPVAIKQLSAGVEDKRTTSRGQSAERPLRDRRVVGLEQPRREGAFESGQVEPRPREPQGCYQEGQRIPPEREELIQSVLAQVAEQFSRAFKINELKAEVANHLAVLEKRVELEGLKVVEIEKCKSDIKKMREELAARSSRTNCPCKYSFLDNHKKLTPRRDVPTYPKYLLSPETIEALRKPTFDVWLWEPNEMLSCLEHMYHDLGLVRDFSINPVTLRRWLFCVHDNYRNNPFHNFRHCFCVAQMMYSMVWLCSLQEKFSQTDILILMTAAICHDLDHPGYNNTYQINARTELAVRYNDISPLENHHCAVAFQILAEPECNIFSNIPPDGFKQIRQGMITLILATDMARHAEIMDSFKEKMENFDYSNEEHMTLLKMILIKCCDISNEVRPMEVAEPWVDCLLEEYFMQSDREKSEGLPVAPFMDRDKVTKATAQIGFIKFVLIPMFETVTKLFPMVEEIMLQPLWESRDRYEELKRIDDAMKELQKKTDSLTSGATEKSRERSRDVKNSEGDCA
# [15] = Selectivity ratio for inhibition of PDE3B (unknown origin) using FAM-cyclic-3',5'-AMP as substrate to inhibition of PDE4D7 (unknown origin) using FAM-cyclic-3',5'-AMP as substrate
# [16] = Selectivity ratio for inhibition of PDE7A (unknown origin) using FAM-cyclic-3',5'-AMP as substrate to inhibition of PDE4D7 (unknown origin) using FAM-cyclic-3',5'-AMP as substrate
# [17] = Selectivity ratio for inhibition of PDE8A1 (unknown origin) using FAM-cyclic-3',5'-AMP as substrate to inhibition of PDE4D7 (unknown origin) using FAM-cyclic-3',5'-AMP as substrate
# [18] = Selectivity ratio for inhibition of PDE9A (unknown origin) using FAM-cyclic-3',5'-AMP as substrate to inhibition of PDE4D7 (unknown origin) using FAM-cyclic-3',5'-AMP as substrate
# [19] = Selectivity ratio for inhibition of PDE3B (unknown origin) using FAM-cyclic-3',5'-AMP as substrate to inhibition of PDE4B1 (unknown origin) using FAM-cyclic-3',5'-AMP as substrate
# [20] = Selectivity ratio for inhibition of PDE7A (unknown origin) using FAM-cyclic-3',5'-AMP as substrate to inhibition of PDE4B1 (unknown origin) using FAM-cyclic-3',5'-AMP as substrate
# [21] = Toxicity in ketamine/xylazine-induced anesthetic C57BL/6J mouse model assessed as emetogenic potential by measuring reduction in anesthesia duration at 5 mg/kg, po preadministered with compound for 15 mins followed by ketamine/xylazine administration; format: organism-based; conditions: in vivo, 0.25 h
# [22] = Oral bioavailability in Sprague-Dawley rat at 10 mg/kg measured after 48 hrs by LC-MS/MS analysis; format: ADME, organism-based; conditions: in vivo
# [23] = Half-life in Sprague-Dawley rat at 10 mg/kg, po measured after 48 hrs by LC-MS/MS analysis; format: ADME, organism-based; conditions: in vivo
# 3',5'-cyclic-AMP phosphodiesterase 4B, sequence (Q07343 whole entry): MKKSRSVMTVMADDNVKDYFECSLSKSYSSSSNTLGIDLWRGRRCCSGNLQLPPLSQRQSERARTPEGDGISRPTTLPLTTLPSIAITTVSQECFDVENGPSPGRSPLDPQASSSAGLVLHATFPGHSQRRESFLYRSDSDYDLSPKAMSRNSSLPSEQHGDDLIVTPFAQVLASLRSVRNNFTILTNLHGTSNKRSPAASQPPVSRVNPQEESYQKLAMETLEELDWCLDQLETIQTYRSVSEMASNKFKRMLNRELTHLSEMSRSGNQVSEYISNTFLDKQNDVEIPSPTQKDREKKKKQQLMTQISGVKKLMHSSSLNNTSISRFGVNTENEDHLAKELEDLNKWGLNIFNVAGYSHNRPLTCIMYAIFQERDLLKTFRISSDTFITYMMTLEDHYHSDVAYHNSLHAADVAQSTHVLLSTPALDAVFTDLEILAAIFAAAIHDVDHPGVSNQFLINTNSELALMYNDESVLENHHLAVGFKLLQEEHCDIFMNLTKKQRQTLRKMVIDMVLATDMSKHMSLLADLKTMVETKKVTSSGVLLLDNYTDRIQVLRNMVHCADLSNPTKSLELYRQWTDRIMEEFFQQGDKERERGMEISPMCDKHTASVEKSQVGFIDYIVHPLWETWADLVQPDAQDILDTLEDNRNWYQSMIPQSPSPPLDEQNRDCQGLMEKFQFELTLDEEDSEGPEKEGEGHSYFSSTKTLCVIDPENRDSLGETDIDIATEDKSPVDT
smiles,measurement,setting,value
CCOc1nc(Cl)cc2nn(CCC(=O)O)cc12,IC50,[1],35.2 nM
same,IC50,[2],25.6 nM
same,inhibition,[3],69%
same,inhibition,[4],35%
same,Activity,[5],Non-Toxic
same,Activity,[6],Non-Toxic
same,Stability,[7],Stable
same,Stability,[8],Stable
same,Selectivity ratio,[9],> 284
same,Selectivity ratio,[10],> 284
same,inhibition,[11],7%
same,inhibition,[12],12%
same,inhibition,[13],7%
same,inhibition,[14],6%
same,Selectivity ratio,[15],> 284
same,Selectivity ratio,[16],> 284
same,Selectivity ratio,[17],> 284
same,Selectivity ratio,[18],> 284
same,Selectivity ratio,[19],> 284
same,Selectivity ratio,[20],> 284
same,Activity,[21],Toxic
CCNc1cc(C(=O)C2CCCC2)ccc1OC,bioavailability,[22],43%
same,half-life,[23],59.4 min
